Experimental data as given in patent publication US11739074B2, “Ras inhibitors” (Revolution Medicines, Inc., priority 2019, dated 2023).
Where two headings read alike, the source gives them in different places.

What was measured:
Type in all cases: cell-based
AsPC-1 (K-Ras G12D) [1] = assay: Potency assay: pERK in AsPC-1 cells; details: Homo sapiens
AsPC-1 (K-Ras G12D) [2] = assay: CellTiter-Glo cell viability assay, AsPC-1; details: Homo sapiens, ASPC1, 120 h
Summary of the method: (§1)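 Luminescence from CellTiter-Glo serves as the viability read-out after cells are treated with compound for 5 days. Each well's signal is divided by the DMSO average and multiplied by 100, and curves are fitted by four-parameter logistic regression.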

NCI-H358 (K-Ras G12C) = assay: CellTiter-Glo cell viability assay, H358; details: Homo sapiens, NCI-H358, 120 h
Summary of the method: as §1

[3] = ASPC1, AsPC-1 cells, K-Ras G12D, read-out: pERK EC50 (AsPC-1 KRAS G12D)
[4] = AsPC-1, K-Ras G12D, 5-day treatment, read-out: AsPC-1 Cell Viability IC50
[5] = NCI-H358, K-Ras G12C, 5-day treatment, read-out: H358 Cell Viability IC50
[6] = ASPC1, read-out: pERK EC50 (AsPC-1 KRAS G12D)
[7] = read-out: AsPC-1 Cell Viability IC50, AsPC-1, K-Ras G12D, 5-day treatment
[8] = read-out: H358 Cell Viability IC50, NCI-H358, K-Ras G12C, 5-day treatment

Compound | EC50 (AsPC-1 (K-Ras G12D) [1]; [3]) | IC50 (AsPC-1 (K-Ras G12D) [2]; [4]) | IC50 (NCI-H358 (K-Ras G12C); [5]) | EC50 (AsPC-1 (K-Ras G12D) [1]; [6]) | IC50 (AsPC-1 (K-Ras G12D) [2]; [7]) | IC50 (NCI-H358 (K-Ras G12C); [8])
CCn1c(-c2cccnc2[C@H](C)OC)c2c3cc(ccc31)-c1csc(n1)C[C@H](NC(=O)[C@H](C(C)C)N(C)C(=O)N1CC(CN(C)C(=O)[C@H]3CN3)C1)C(=O)N1CCC[C@H](N1)C(=O)OCC(C)(C)C2 [Compound 224] | < 5 µM | 0.1 to 1 µM | 0.01 to 0.1 µM | – | – | –
CCn1c(-c2cccnc2[C@H](C)OC)c2c3cc(ccc31)-c1cc(O)cc(c1)C[C@H](NC(=O)[C@H](C1CCCC1)N(C)C(=O)CN(C)C(=O)[C@@H]1N[C@@H]1C1CC1)C(=O)N1CCC[C@H](N1)C(=O)OCC(C)(C)C2 [Compound 170] | < 5 µM | 0.01 to 0.1 µM | 0.01 to 0.1 µM | – | – | –
CCn1c(-c2cccnc2[C@H](C)OC)c2c3cc(ccc31)-c1cc(O)cc(c1)C[C@H](NC(=O)[C@H](C(C)C)N(C)C(=O)[C@@H]1CCN(C(=O)[C@H]3CN3)C1)C(=O)N1CCC[C@H](N1)C(=O)OCC(C)(C)C2 [Compound 186] | < 5 µM | 0.1 to 1 µM | < 0.01 µM | – | – | –
CCn1c(-c2cccnc2[C@H](C)OC)c2c3cc(ccc31)-c1csc(n1)C[C@H](NC(=O)[C@H](C(C)C)N(C)C(=O)N(C)CC1CN(C(=O)[C@H]3CN3)C1)C(=O)N1CCC[C@H](N1)C(=O)OCC(C)(C)C2 [Compound 293] | < 5 µM | 1 to 10 µM | 0.01 to 0.1 µM | – | – | –
CCn1c(-c2cccnc2[C@H](C)OC)c2c3cc(ccc31)-c1cc(O)cc(c1)C[C@H](NC(=O)[C@H](C(C)C)N(C)C(=O)CN(C)C(=O)[C@@H]1N[C@H]1COC)C(=O)N1CCC[C@H](N1)C(=O)OCC(C)(C)C2 [Compound 85] | – | – | – | < 5 µM | 1 to 10 µM | 0.01 to 0.1 µM
CCn1c(-c2cccnc2[C@H](C)OC)c2c3cc(ccc31)-c1csc(n1)C[C@H](NC(=O)[C@H](C(C)C)N(C)C(=O)N1CCC(CN(C)C(=O)[C@H]3CN3)CC1)C(=O)N1CCC[C@H](N1)C(=O)OCC(C)(C)C2 [Compound 326] | < 5 µM | 0.1 to 1 µM | 0.01 to 0.1 µM | – | – | –
CCn1c(-c2cccnc2[C@H](C)OC)c2c3cc(ccc31)-c1cc(O)cc(c1)C[C@H](NC(=O)[C@H](C(C)C)N(C)C(=O)[C@@]1(F)CCN(C(=O)[C@H]3CN3)C1)C(=O)N1CCC[C@H](N1)C(=O)OCC(C)(C)C2 [Compound 171] | < 5 µM | 0.1 to 1 µM | < 0.01 µM | – | – | –
CCn1c(-c2cccnc2[C@H](C)OC)c2c3cc(ccc31)-c1csc(n1)C[C@H](NC(=O)[C@H](C(C)C)N(C)C(=O)N1CC(CN(C)C(=O)[C@@H]3CN3)C1)C(=O)N1CCC[C@H](N1)C(=O)OCC(C)(C)C2 [Compound 225] | < 5 µM | 0.1 to 1 µM | 0.01 to 0.1 µM | – | – | –
CCn1c(-c2cccnc2[C@H](C)OC)c2c3cc(ccc31)-c1cc(O)cc(c1)C[C@H](NC(=O)[C@H](C(C)C)N(C)C(=O)[C@H]1CCN(C(=O)[C@H]3CN3)C1)C(=O)N1CCC[C@H](N1)C(=O)OCC(C)(C)C2 (single isomer, unassigned) [Compound 43A] | < 5 µM | 0.1 to 1 µM | < 0.01 µM | – | – | –
CCn1c(-c2cccnc2[C@H](C)OC)c2c3cc(ccc31)-c1cc(O)cc(c1)C[C@H](NC(=O)[C@H](C(C)C)N(C)C(=O)CN(C)C(=O)[C@@H]1CN1CC1(C)COC1)C(=O)N1CCC[C@H](N1)C(=O)OCC(C)(C)C2 (stereo partly drawn) [Compound 280] | – | – | – | < 5 µM | 1 to 10 µM | < 0.01 µM
CCn1c(-c2cccnc2[C@H](C)OC)c2c3cc(ccc31)-c1cc(O)cc(c1)C[C@H](NC(=O)[C@H](C(C)C)N(C)C(=O)[C@@H]1CO[C@H](C)CN1C(=O)[C@H]1CN1)C(=O)N1CCC[C@H](N1)C(=O)OCC(C)(C)C2 [Compound 248] | < 5 µM | 0.1 to 1 µM | 0.01 to 0.1 µM | – | – | –
CCn1c(-c2cccnc2[C@H](C)OC)c2c3cc(ccc31)-c1cc(O)cc(c1)C[C@H](NC(=O)[C@H](C(C)C)N(C)C(=O)CN(C)C(=O)[C@@H]1N[C@@H]1C(C)C)C(=O)N1CCC[C@H](N1)C(=O)OCC(C)(C)C2 [Compound 264] | – | – | – | < 5 µM | 0.1 to 1 µM | 0.01 to 0.1 µM
CCn1c(-c2cccnc2[C@H](C)OC)c2c3cc(ccc31)-c1cc(O)cc(c1)C[C@H](NC(=O)[C@H](C(C)C)N(C)C(=O)CN(C)C(=O)[C@@H]1N[C@@H]1C1CC1)C(=O)N1CCC[C@H](N1)C(=O)OCC(C)(C)C2 [Example 133, (2R,3R)-3-cyclopropyl-N-(2-(((2S)-1-(((6^3S,4S)-1^1-ethyl-2^5-hydroxy-1^2-(2-((S)-1-methoxyethyl)pyridin-3-yl)-10,10-dimethyl-5,7-dioxo-6^1,6^2,6^3,6^4,6^5,6^6-hexahydro-1^1H-8-oxa-1(5,3)-indola-6(1,3)-pyridazina-2(1,3)-benzenacycloundecaphane-4-yl)amino)-3-methyl-1-oxobutan-2-yl)(methyl)amino)-2-oxoethyl)-N-methylaziridine-2-carboxamide] | – | – | – | < 5 µM | 0.01 to 0.1 µM | 0.01 to 0.1 µM
CCn1c(-c2cccnc2[C@H](C)OC)c2c3cc(ccc31)-c1csc(n1)C[C@H](NC(=O)[C@H](C(C)C)N(C)C(=O)N1CCN(C(=O)[C@H]3CN3)[C@H](C)C1)C(=O)N1CCC[C@H](N1)C(=O)OCC(C)(C)C2 [Compound 299] | < 5 µM | 0.1 to 1 µM | < 0.01 µM | – | – | –
CCn1c(-c2cnccc2COC)c2c3cc(ccc31)-c1cc(O)cc(c1)C[C@H](NC(=O)[C@H](C(C)C)N(C)C(=O)CN(C)C(=O)[C@@H]1N[C@H]1c1ccccc1)C(=O)N1CCC[C@H](N1)C(=O)OCC(C)(C)C2 [Compound 11] | – | – | – | < 5 µM | 1 to 10 µM | 0.1 to 1 µM
CCn1c(-c2cccnc2[C@H](C)OC)c2c3cc(ccc31)-c1cc(O)cc(c1)C[C@H](NC(=O)[C@H](C(C)C)N(C)C(=O)[C@H]1CCN(S(=O)(=O)[C@@H]3CN3C)C1)C(=O)N1CCC[C@H](N1)C(=O)OCC(C)(C)C2 (single isomer, unassigned) [Compound 56] | < 5 µM | 1 to 10 µM | 0.1 to 1 µM | – | – | –
CCn1c(-c2cccnc2[C@H](C)OC)c2c3cc(ccc31)-c1cc(O)cc(c1)C[C@H](NC(=O)[C@H](C(C)C)N(C)C(=O)CN(C)C(=O)[C@@H]1N[C@H]1C(F)(F)F)C(=O)N1CCC[C@H](N1)C(=O)OCC(C)(C)C2 [Compound 260] | – | – | – | < 5 µM | 0.1 to 1 µM | 0.01 to 0.1 µM
CCn1c(-c2cccnc2[C@H](C)OC)c2c3cc(ccc31)-c1cc(O)cc(c1)C[C@H](NC(=O)[C@H](C(C)C)N(C)C(=O)[C@@H]1CCN(C(=O)[C@@H]3CN3)[C@@H]1C)C(=O)N1CCC[C@H](N1)C(=O)OCC(C)(C)C2 [Compound 208] | < 5 µM | 1 to 10 µM | 0.01 to 0.1 µM | – | – | –
CCn1c(-c2cnccc2COC)c2c3cc(ccc31)-c1cc(O)cc(c1)C[C@H](NC(=O)[C@H](C(C)C)N(C)C(=O)[C@H]1CCN(C(=O)[C@H]3CN3)C1)C(=O)N1CCC[C@H](N1)C(=O)OCC(C)(C)C2 [Example 1, (3S)-1-((R)-aziridine-2-carbonyl)-N-((2S)-1-(((6^3S,4S)-1^1-ethyl-2^5-hydroxy-1^2-(4-(methoxymethyl)pyridin-3-yl)-10,10-dimethyl-5,7-dioxo-6^1,6^2,6^3,6^4,6^5,6^6-hexahydro-1^1H-8-oxa-1(5,3)-indola-6(1,3)-pyridazina-2(1,3)-benzenacycloundecaphane-4-yl)amino)-3-methyl-1-oxobutan-2-yl)-N-methylpyrrolidine-3-carboxamide] | < 5 µM | 1 to 10 µM | < 0.01 µM | – | – | –
CCn1c(-c2cccnc2[C@H](C)OC)c2c3cc(ccc31)-c1csc(n1)C[C@H](NC(=O)[C@H](C(C)C)N(C)C(=O)N1CC[C@@H](N(C)C(=O)[C@H]3CN3)C1)C(=O)N1CCC[C@H](N1)C(=O)OCC(C)(C)C2 [Compound 226] | < 5 µM | 1 to 10 µM | 0.01 to 0.1 µM | – | – | –
